Tests used:
Assay in all cases: relative viability (nuclei count vs DMSO), 5 days (fraction); higher = more cells survive
[1] = compound: C1CC(C1)(C(=O)O)C(=O)O.[NH2-].[NH2-].[Pt+2] [Carboplatin] + CC(=O)c1c(C)c2cnc(Nc3ccc(N4CCNCC4)cn3)nc2n(C2CCCC2)c1=O [Palbociclib] (partner 0.5 µM)
How it was run: (§1)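 Dosing by pin tool came one day after lung cancer cell lines were seeded in 1536-well plates, using either one drug or a fixed anchor-drug dose plus five library-drug doses (not always all listed) in √10 steps. After 5 days, nuclei were counted on 4× images. Relative viability is treated-well nuclei count divided by vehicle-well nuclei count, and values are medians of duplicate plates.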

Carboplatin + Vorinostat = compound: C1CC(C1)(C(=O)O)C(=O)O.[NH2-].[NH2-].[Pt+2] [Carboplatin] + O=C(CCCCCCC(=O)Nc1ccccc1)NO [Vorinostat] (partner 1 µM)
How it was run: as §1

GSK126 + Bortezomib = compound: CC[C@H](C)N1C=C(C2=C(C=C(C=C21)C3=CN=C(C=C3)N4CCNCC4)C(=O)NCC5=C(C=C(NC5=O)C)C)C [GSK126] + CC(C)C[C@H](NC(=O)[C@H](Cc1ccccc1)NC(=O)c1cnccn1)B(O)O [Bortezomib] (partner 0.002 µM)
How it was run: as §1

Carboplatin + Luminespib = compound: C1CC(C1)(C(=O)O)C(=O)O.[NH2-].[NH2-].[Pt+2] [Carboplatin] + CCNC(=O)c1noc(-c2cc(C(C)C)c(O)cc2O)c1-c1ccc(CN2CCOCC2)cc1 [Luminespib] (partner 0.01 µM)
How it was run: as §1

Work on UMC-11 yielded a relative viability ([1]; first compound 0.08 µM) of 0.314, a relative viability ([1]; first compound 0.253 µM) of 0.348 and a relative viability ([1]; first compound 0.8 µM) of 0.275. For the same cell line, the relative viability ([1]; first compound 2.53 µM) was 0.301, the relative viability ([1]; first compound 8 µM) was 0.339 and the relative viability (Carboplatin + Vorinostat; first compound 0.08 µM) was 0.425. The relative viability (Carboplatin + Vorinostat; first compound 0.253 µM) was 0.364, the relative viability (Carboplatin + Vorinostat; first compound 0.8 µM) was 0.36 and the relative viability (Carboplatin + Vorinostat; first compound 2.53 µM) was 0.37. For the same cell line, the relative viability (Carboplatin + Vorinostat; first compound 8 µM) was 0.283, the relative viability (GSK126 + Bortezomib; first compound 0.08 µM) was 0.842 and the relative viability (GSK126 + Bortezomib; first compound 0.253 µM) was 0.628. The relative viability (GSK126 + Bortezomib; first compound 0.8 µM) was 0.747, the relative viability (GSK126 + Bortezomib; first compound 2.53 µM) was 0.643 and the relative viability (GSK126 + Bortezomib; first compound 8 µM) was 0.895. It also gave a relative viability (Carboplatin + Luminespib; first compound 0.08 µM) of 0.961, a relative viability (Carboplatin + Luminespib; first compound 0.253 µM) of 1.01 and a relative viability (Carboplatin + Luminespib; first compound 0.8 µM) of 1. The relative viability (Carboplatin + Luminespib; first compound 2.53 µM) was 0.955 and the relative viability (Carboplatin + Luminespib; first compound 8 µM) was 0.651.

From the supplement of paper PMC10307832
